Experimental data reported in patent US6251893A, “Bicyclic piperidine and piperazine compounds having 5-HT6 receptor affinity” (NPS Allelix Corp., priority 1998, dated 2001).

Key:
human 5HT6 receptor = human 5HT6 receptor (Homo sapiens, UniProt P50406); test: Binding affinity for the 5-HT6 receptor (3H-LSD displacement); design: expressed in transfected cells; details: 100 nM test compound; 3H-LSD (2 nM); 60 minute incubation at 37° C; read-out: percent inhibition of radioligand binding for the 5-HT6 receptor
Description: Binding Affinity for the 5-HT6 Receptor
The assay protocol generally entailed the incubation of membranes prepared from cells expressing the 5-HT6 receptor with ^3 H-LSD (2 nM). Increasing levels of the test compound were incubated with the radioligand and the membrane homogenates prepared from the recombinant cells. After a 60 minute incubation at 37° C., the incubation was terminated by vacuum filtration. The filters were washed with buffer and the filters were counted for radioactivity using liquid scintillation spectrometry. […] Concentrations ranging from 10^-11 M to 10^-5 M of the test compound were evaluated. […] Affinity for the 5-HT6 receptor is expressed as the amount (in percent) of binding of the radioligand that is inhibited in the presence of 100 nM of test compound. A greater percent inhibition indicates greater affinity for the 5-HT6 receptor.

5-HT7 receptor = 5-HT7 receptor (Homo sapiens, UniProt P34969); test: Binding to 5-HT7 receptor (selectivity); design: dose or concentration left out as unconfirmed; details: selectivity versus 5-HT6; read-out: percent inhibition for the 5-HT7 receptor
5-HT2A receptor = 5-HT2A receptor (Homo sapiens, UniProt P28223); test: Binding to 5-HT2A receptor (selectivity); design: dose or concentration left out as unconfirmed; details: selectivity versus 5-HT6; read-out: percent inhibition for the 5-HT2A receptor
5HT2C receptor = molecular target: T1, 5HT2C receptor (Homo sapiens, UniProt P28335); test: Binding to 5HT2C receptor (selectivity); details: selectivity versus 5-HT6; read-out: percent inhibition for the 5HT2C receptor
T1 sequence (P28335 33-458): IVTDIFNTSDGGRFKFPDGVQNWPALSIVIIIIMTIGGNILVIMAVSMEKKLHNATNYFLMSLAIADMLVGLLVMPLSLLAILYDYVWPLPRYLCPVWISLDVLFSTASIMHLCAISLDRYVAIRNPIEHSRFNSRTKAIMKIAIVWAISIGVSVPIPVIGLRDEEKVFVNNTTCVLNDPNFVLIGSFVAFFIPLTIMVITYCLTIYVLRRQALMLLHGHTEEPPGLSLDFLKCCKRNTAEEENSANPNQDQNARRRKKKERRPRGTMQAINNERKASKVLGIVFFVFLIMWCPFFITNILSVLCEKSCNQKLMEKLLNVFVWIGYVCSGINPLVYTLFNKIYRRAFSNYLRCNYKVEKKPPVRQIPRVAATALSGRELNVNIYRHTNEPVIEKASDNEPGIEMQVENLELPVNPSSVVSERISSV

Sequence of 5-HT2A receptor (P28223 whole entry): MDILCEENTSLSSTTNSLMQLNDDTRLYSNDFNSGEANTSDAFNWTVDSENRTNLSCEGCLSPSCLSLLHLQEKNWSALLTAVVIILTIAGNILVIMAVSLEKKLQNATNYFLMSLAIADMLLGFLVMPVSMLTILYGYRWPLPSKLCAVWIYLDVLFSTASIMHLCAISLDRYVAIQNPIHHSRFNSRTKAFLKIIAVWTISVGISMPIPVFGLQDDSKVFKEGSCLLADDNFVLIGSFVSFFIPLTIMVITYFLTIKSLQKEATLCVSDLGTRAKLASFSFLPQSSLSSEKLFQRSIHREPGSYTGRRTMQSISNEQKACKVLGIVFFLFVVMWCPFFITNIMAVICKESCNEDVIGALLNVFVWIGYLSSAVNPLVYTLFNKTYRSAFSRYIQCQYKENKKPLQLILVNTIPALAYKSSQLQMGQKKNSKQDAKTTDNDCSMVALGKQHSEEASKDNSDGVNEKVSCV
Sequence of human 5HT6 receptor (P50406 whole entry): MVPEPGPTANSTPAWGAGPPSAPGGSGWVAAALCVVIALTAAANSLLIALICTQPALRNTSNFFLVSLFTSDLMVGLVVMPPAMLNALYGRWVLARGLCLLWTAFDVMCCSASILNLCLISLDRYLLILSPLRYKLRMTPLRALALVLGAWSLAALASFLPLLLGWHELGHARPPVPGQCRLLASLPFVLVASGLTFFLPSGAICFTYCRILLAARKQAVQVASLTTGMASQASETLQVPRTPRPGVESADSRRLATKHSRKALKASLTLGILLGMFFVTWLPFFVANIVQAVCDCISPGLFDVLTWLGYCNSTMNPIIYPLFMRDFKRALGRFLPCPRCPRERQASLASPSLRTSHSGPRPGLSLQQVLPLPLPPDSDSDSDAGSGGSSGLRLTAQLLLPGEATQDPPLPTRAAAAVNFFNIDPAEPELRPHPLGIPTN
Sequence of 5-HT7 receptor (P34969 whole entry): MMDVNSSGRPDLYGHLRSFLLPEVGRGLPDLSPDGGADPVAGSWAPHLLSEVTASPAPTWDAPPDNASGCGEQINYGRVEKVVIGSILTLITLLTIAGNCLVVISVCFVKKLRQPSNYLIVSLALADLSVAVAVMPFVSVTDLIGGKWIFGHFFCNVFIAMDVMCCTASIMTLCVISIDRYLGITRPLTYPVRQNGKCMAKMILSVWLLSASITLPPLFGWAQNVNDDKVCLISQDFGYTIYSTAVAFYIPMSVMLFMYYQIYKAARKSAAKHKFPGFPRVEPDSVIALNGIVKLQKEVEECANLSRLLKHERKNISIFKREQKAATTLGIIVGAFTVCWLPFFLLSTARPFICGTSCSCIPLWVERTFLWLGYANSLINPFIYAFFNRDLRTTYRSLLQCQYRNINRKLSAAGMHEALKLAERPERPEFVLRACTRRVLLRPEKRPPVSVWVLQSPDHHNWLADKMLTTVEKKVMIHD

With `Cc1cccc(-n2cc(C3CCN4CCCC4C3)c3cc(F)ccc32)c1` (racemic) [Example 9a, 5-Fluoro-3-[(7-R,S)(8a-R,S)-octahydro-7-indolizinyl]-1-(3-methylphenyl)indole] the inhibition at 0.1 µM (human 5HT6 receptor) was greater than 80%.

Work on `COc1ccc2c(c1)c(C1=CCN3CCCC3C1)cn2S(=O)(=O)c1cccc2ccccc12` (racemic) [Example 6nn, 5-Methoxy-3-[(8a-R,S)-1,2,3,5,8,8a-hexahydro-7-indolizinyl]-1-naphthalenesulfonylindole] yielded an inhibition (5-HT7 receptor) of less than 20%, an inhibition (5-HT2A receptor) of less than 20% and an inhibition at 0.1 µM (5HT2C receptor) of less than 20%. For the same compound, the inhibition at 0.1 µM (human 5HT6 receptor) was greater than 80%.

`O=S(=O)(c1ccc(Cl)cc1)n1cc(C2=CCN3CCCC3C2)c2cc(F)ccc21` (racemic) [Example 6ii, 1-(4-Chlorophenylsulfonyl)-5-fluoro-3-[(8a-R,S)-1,2,3,5,8,8a-hexahydro-7-indolizinyl]indole] gave an inhibition (5-HT7 receptor) of less than 20%, an inhibition (5-HT2A receptor) of less than 20% and an inhibition at 0.1 µM (5HT2C receptor) of less than 20%. For the same compound, the inhibition at 0.1 µM (human 5HT6 receptor) was greater than 80%.

Work on `O=S(=O)(c1ccc2ccccc2c1)n1cc(C2=CCN3CCCC3C2)c2cc(F)ccc21` (racemic) [Example 6z, 5-Fluoro-3-[(8a-R,S)-1,2,3,5,8,8a-hexahydro-7-indolizinyl]-1-(2-naphthalenesulfonyl)indole] yielded an inhibition (5-HT7 receptor) of less than 20%, an inhibition (5-HT2A receptor) of less than 20% and an inhibition at 0.1 µM (5HT2C receptor) of less than 20%. The inhibition at 0.1 µM (human 5HT6 receptor) was greater than 80%.

`COc1ccc(S(=O)(=O)n2cc(N3CCN4CCCC4C3)c3ccccc32)cc1` (racemic) [Example 6g, 3-[(6-R,S)-1,4-Diaza[4.3. 0]bicyclonon-4-yl]-1-(4-methoxyphenylsulfonyl)indole] showed an inhibition (5-HT7 receptor) of less than 20%, an inhibition (5-HT2A receptor) of less than 20% and an inhibition at 0.1 µM (5HT2C receptor) of less than 20%. It also gave an inhibition at 0.1 µM (human 5HT6 receptor) greater than 80%.

Compound `Cc1ccc(S(=O)(=O)n2nc(N3CCN4CCCC4C3)c3ccccc32)cc1` (racemic) [Example 7a, 3-[(6-R,S)-1,4-Diaza[4.3. 0]bicyclonon-4-yl]-1-(4-methylphenylsulfonyl)indazole] has an inhibition at 0.1 µM (human 5HT6 receptor) greater than 80%.

`O=S(=O)(c1ccc(F)cc1)n1cc(N2CCN3CCCC3C2)c2ccccc21` (racemic) [Example 6f, 3-[(6-R,S)-1,4-Diaza[4.3. 0]bicyclonon-4-yl]-1-(4-fluorophenylsulfonyl)indole] gave an inhibition at 0.1 µM (human 5HT6 receptor) greater than 80%.

`Cc1ccc(S(=O)(=O)n2cc(N3CCN4CCCCC4C3)c3ccccc32)cc1` (racemic) [Example 6v, 3-[(6-R,S)-1,4-Diaza[4.4. 0]bicyclodecan-4-yl]-1-(4-methylphenylsulfonyl)indole] showed an inhibition at 0.1 µM (human 5HT6 receptor) greater than 80%.

`O=S(=O)(c1ccccc1)n1cc(N2CCN3CCCCC3C2)c2ccccc21` (racemic) [Example 6u, 3-[(6-R,S)-1,4-Diaza[4.4.0]bicyclodecan-4-yl]-1-(phenylsulfonyl)indole] showed an inhibition (5-HT7 receptor) of less than 20%, an inhibition (5-HT2A receptor) of less than 20% and an inhibition at 0.1 µM (5HT2C receptor) of less than 20%. For the same compound, the inhibition at 0.1 µM (human 5HT6 receptor) was greater than 80%.

Work on `Cc1cccc2c(C3=CCN4CCCC4C3)cn(S(=O)(=O)c3ccccc3)c12` (racemic) [Example 6ss, 7-Methyl-3-[(8a-R,S)-1,2,3,5,8,8a-hexahydro-7-indolizinyl]-1-phenylsulfonylindole] yielded an inhibition (5-HT7 receptor) of less than 20%, an inhibition (5-HT2A receptor) of less than 20% and an inhibition at 0.1 µM (5HT2C receptor) of less than 20%. For the same compound, the inhibition at 0.1 µM (human 5HT6 receptor) was greater than 80%.

`O=S(=O)(c1ccc2ccccc2c1)n1cc(N2CCN3CCCC3C2)c2ccccc21` (racemic) [Example 6a, 3-[(6-R,S)-1,4-Diaza[4.3. 0]bicyclonon-4-yl]-1-(2-naphthalenesulfonyl)indole] showed an inhibition (5-HT7 receptor) of less than 20%, an inhibition (5-HT2A receptor) of less than 20% and an inhibition at 0.1 µM (5HT2C receptor) of less than 20%. It also gave an inhibition at 0.1 µM (human 5HT6 receptor) greater than 80%.

Compound `Cc1ccc2c(c1)c(C1=CCN3CCCC3C1)cn2S(=O)(=O)c1cccc2ccccc12` (racemic) [Example 6qq, 5-Methyl-3-[(8a-R,S)-1,2,3,5,8,8a-hexahydro-7-indolizinyl]-1-naphthalenesulfonylindole] has an inhibition (5-HT7 receptor) of less than 20%, an inhibition (5-HT2A receptor) of less than 20% and an inhibition at 0.1 µM (5HT2C receptor) of less than 20%. It also gave an inhibition at 0.1 µM (human 5HT6 receptor) greater than 80%.

`Cc1ccc(S(=O)(=O)n2cc(N3CCN4CCCC4C3)c3ccccc32)cc1` (racemic) [Example 6k, 3-[(6-R,S)-1,4-Diaza[4.3. 0]bicyclonon-4-yl]-1-(4-methylphenylsulfonyl)indole] gave an inhibition at 0.1 µM (human 5HT6 receptor) greater than 80%.

In the case of `O=S(=O)(c1ccc2ccccc2c1)n1cc(C2=CCN3CCCC3C2)c2cc(F)cc(F)c21` (racemic) [Example 6ll, 5,7-Difluoro-3-[(8a-R,S)-1,2,3,5,8,8a-hexahydro-7-indolizinyl]-2-naphthalenesulfonylindole], the inhibition (5-HT7 receptor) is reported as less than 20%, the inhibition (5-HT2A receptor) is reported as less than 20% and the inhibition at 0.1 µM (5HT2C receptor) is reported as less than 20%. It also gave an inhibition at 0.1 µM (human 5HT6 receptor) greater than 80%.

`O=S(=O)(c1ccccc1Br)n1cc(N2CCN3CCCC3C2)c2ccccc21` (racemic) [Example 6i, 1-(2-Bromophenylsulfonyl)-3-[(6-R,S)-1,4-diaza[4.3. 0]bicyclonon-4-yl]indole] was tested, and the inhibition at 0.1 µM (human 5HT6 receptor) was greater than 80%.

For `Cc1cccc2c(C3=CCN4CCCC4C3)cn(S(=O)(=O)c3cccc4ccccc34)c12` (racemic) [Example 6tt, 7-Methyl-3-[(8a-R,S)-1,2,3,5,8,8a-hexahydro-7-indolizinyl]-1-naphthalenesulfonylindole], the inhibition (5-HT7 receptor) was less than 20%, the inhibition (5-HT2A receptor) was less than 20% and the inhibition at 0.1 µM (5HT2C receptor) was less than 20%. The inhibition at 0.1 µM (human 5HT6 receptor) was greater than 80%.

For `O=S(=O)(c1cccc2ccccc12)n1cc(C2=CCN3CCCC3C2)c2cc(F)cc(F)c21` (racemic) [Example 6kk, 5,7-Difluoro-3-[(8a-R,S)-1,2,3,5,8,8a-hexahydro-7-indolizinyl]-1-naphthalenesulfonylindole], the inhibition (5-HT7 receptor) was less than 20%, the inhibition (5-HT2A receptor) was less than 20% and the inhibition at 0.1 µM (5HT2C receptor) was less than 20%. For the same compound, the inhibition at 0.1 µM (human 5HT6 receptor) was greater than 80%.

With `O=S(=O)(c1ccc(Br)cc1)n1cc(N2CCN3CCCC3C2)c2ccccc21` (racemic) [Example 6c, 1-(4-Bromophenylsulfonyl)-3-[(6-R,S)-1,4-diaza[4.3. 0]bicyclonon-4-yl]indole] the inhibition (5-HT7 receptor) was less than 20%, the inhibition (5-HT2A receptor) was less than 20% and the inhibition at 0.1 µM (5HT2C receptor) was less than 20%. For the same compound, the inhibition at 0.1 µM (human 5HT6 receptor) was greater than 80%.

Compound `Fc1ccc2c(c1)c(C1CCN3CCCC3C1)cn2Cc1ccccc1` (single isomer, unassigned; isomer i) [Example 10h, 1-Benzyl-5-fluoro-3-[(7R or 7S)(8a-R,S)-octahydrohydro-7-indolizinyl]indole, Isomer I] has an inhibition at 0.1 µM (human 5HT6 receptor) greater than 80%.

With `CC(C)(C)c1ccc(S(=O)(=O)n2cc(N3CCN4CCCC4C3)c3ccccc32)cc1` (racemic) [Example 6d, 1-(4-t-Butylphenylsulfonyl)-3-[(6-R,S)-1,4-diaza[4.3. 0]bicyclonon-4-yl]indole] the inhibition (5-HT7 receptor) was less than 20%, the inhibition (5-HT2A receptor) was less than 20% and the inhibition at 0.1 µM (5HT2C receptor) was less than 20%. For the same compound, the inhibition at 0.1 µM (human 5HT6 receptor) was greater than 80%.

`Cc1cccc(S(=O)(=O)n2cc(C3CCN4CCCC4C3)c3cc(F)ccc32)c1` (single isomer, unassigned; isomer i) [Example 10k, 5-Fluoro-1-(3-methylphenylsulfonyl)-3-[(7R or 7S)(8a-R,S)octahydrohydro-7-indolizinyl]lindole, Isomer I] gave an inhibition at 0.1 µM (human 5HT6 receptor) greater than 80%.

Compound `O=S(=O)(c1ccc(Cl)cc1)n1cc(N2CCN3CCCC3C2)c2ccccc21` (racemic) [Example 6e, 1-(4-Chlorophenylsulfonyl)-3-[(6-R,S)-1,4-diaza[4.3. 0]bicyclonon-4-yl]indole] has an inhibition at 0.1 µM (human 5HT6 receptor) greater than 80%.

`Cc1ccc(S(=O)(=O)n2nc(N3CCN4CCCCC4C3)c3ccccc32)cc1` (racemic) [Example 7b, 3-[(6-R,S)-1,4-Diaza[4.4. 0]bicyclodecan-4-yl]-1-(4-methylphenylsulfonyl)indazole] showed an inhibition at 0.1 µM (human 5HT6 receptor) greater than 80%.

With `O=S(=O)(c1ccccc1)n1cc(C2=CCN3CCCC3C2)c2cc(OC3CCCCC3)ccc21` (racemic) [Example 10i, 5-Cyclohexyloxy-3-[(8a-R,S)-1,2,3,5,8,8a-hexahydrohydro-7-indolizinyl]-1-phenylsulfonylindole] the inhibition at 0.1 µM (human 5HT6 receptor) was greater than 80%.

`O=S(=O)(c1cc(Cl)ccc1Cl)n1cc(C2CCN3CCCC3C2)c2cc(F)ccc21` (single isomer, unassigned; isomer i) [Example 10j, 1-(2,5-Dichlorophenylsulfonyl)-5-Fluoro-3-[(7R or 7S)(8a-R,S)-octahydrohydro-7-indolizinyl]indole, Isomer I] gave an inhibition at 0.1 µM (human 5HT6 receptor) greater than 80%.

Compound `O=S(=O)(c1cc(Cl)ccc1Cl)n1cc(N2CCN3CCCC3C2)c2ccccc21` (racemic) [Example 6h, 3-[(6-R,S)-1,4-Diaza[4.3. 0]bicyclonon-4-yl]-1-(2,5-dichlorophenylsulfonyl)indole] has an inhibition at 0.1 µM (human 5HT6 receptor) greater than 80%.
